Where “and” joins values, the source holds several entries; their conditions need not be identical. Identical values can stand only once.
What was measured:
[1] = test system: patient diagnosed as suffering from narcolepsy with cataplexy; test: Single-patient examples: reboxetine 5 mg at 8 am and 5 mg at 1 pm for three weeks in narcolepsy with cataplexy; format: in vivo, human
Procedure: (§1) A person is diagnosed as suffering from narcolepsy with cataplexy. They are given reboxetine and instructed to take 5 mg of reboxetine at 8 am and 5 mg of reboxetine at 1 pm for three weeks. The patient is evaluated prior to treatment, and weekly to determine the MWT score, the number of cataplexy attacks, the PGI-C score, the HAM-D score, the ESS score, the NSAQ score, and the ability to concentrate on the NSAQ. After one week of treatment, the number of cataplexy attacks have decreased by 10-30%.
as §1, with “30-60%.” for “10-30%.”
as §1, with “60-100%.” for “10-30%.”
as §1, with “ESS score has” for “number of cataplexy attacks have”
as §1, with “ESS score has” for “number of cataplexy attacks have”, “30-60%.” for “10-30%.”
as §1, with “ESS score has” for “number of cataplexy attacks have”, “60-100%.” for “10-30%.”
as §1, with “MWT score has” for “number of cataplexy attacks have”
as §1, with “MWT score has” for “number of cataplexy attacks have”, “30-60%. […]” for “10-30%.”

[2] = test system: patients with a diagnosis of narcolepsy with cataplexy; test: Phase 2, double-blind, randomized, placebo-controlled, crossover, multicenter trial of reboxetine in patients with narcolepsy; format: in vivo, human
Procedure: A Phase 2, double-blind, randomized, placebo-controlled, crossover, multicenter trial of reboxetine was carried out in patients with narcolepsy. A total of 21 patients with a diagnosis of narcolepsy with cataplexy were treated for 2 weeks with reboxetine or with placebo, followed by a crossover to the other treatment after a 1-week down-titration and washout period. Reboxetine was administered orally twice daily, with a total daily dose of 8 mg for Week 1 which was escalated to 10 mg for Week 2. Patients were randomized in a 1:1 ratio either to treatment with reboxetine followed by placebo (sequence 1), or to treatment with placebo followed by reboxetine (sequence 2). The average number of cataplexy attacks at baseline was 30. Key assessments were made daily using an electronic diary. The prespecified primary endpoint was the change in the weekly number of cataplexy attacks, averaged over the 2-week treatment period (overall treatment effect). Secondary endpoints included changes in the number of inadvertent naps, cognition, and Epworth Sleepiness Scale. Cognition was assessed using the Ability to Concentrate item of the Narcolepsy Symptom Assessment Questionnaire, a patient reported outcome measure. This item is rated on 5-point scale (1=very good to 5=very poor). All analyses were conducted on an intent-to-treat basis.

[3] = human patients; without controlled release coating; cited from earlier work

CCOc1ccccc1OC(c1ccccc1)C1CNCCO1 (centres unmarked) [reboxetine]
decrease in ESS score ([1]; after one week of treatment): 10-30% and 30-60% and 60-100%
decrease in MWT score ([1]; after one week of treatment): 10-30% and 30-60% and 60-100%
decrease in number of cataplexy attacks ([1]; after one week of treatment): 10-30% and 30-60% and 60-100%
decrease in ESS score ([1]; after three weeks of treatment): 10-30% and 30-60% and 60-100%
decrease in HAM-D score ([1]; after three weeks of treatment): 10-30% and 30-60% and 60-100%
decrease in MWT score ([1]; after three weeks of treatment): 10-30% and 30-60% and 60-100%
decrease in number of cataplexy attacks ([1]; after three weeks of treatment): 10-30% and 30-60% and 60-100%
patients with an ability to concentrate that was good to very good (Ability to Concentrate item of the NSAQ) ([2]; Week 1, p=0.007 vs placebo): 38.1%
mean reduction from baseline in cataplexy attacks ([2]; Week 2): 48.7%
mean reduction of cataplexy attacks per week ([2]; Week 2, baseline average 30 attacks, p=0.002 vs placebo): 14.6 cataplexy attacks per week
mean reduction from baseline in the average weekly number of inadvertent naps ([2]; Week 2, p<0.001 vs placebo, FIG. 5): 31.8%
proportion of patients achieving a 50% or greater reduction in the weekly number of cataplexy attacks ([2]; Week 2, p=0.003 vs placebo, FIG. 2): 76.2%
proportion of patients achieving a 75% or greater reduction in the weekly number of cataplexy attacks ([2]; Week 2, p=0.018 vs placebo, FIG. 3): 42.9%
mean reduction from baseline in cataplexy attacks ([2]; after 1-week treatment): 43.3%
mean reduction of cataplexy attacks ([2]; after 1-week treatment, p<0.001 vs placebo): 13.0 cataplexy attacks
patients with reductions in hypnagogic hallucinations ([2]; as compared to placebo, FIG. 9): greater proportion of patients with reductions
patients with reductions in sleep paralysis episodes ([2]; as compared to placebo, FIG. 9): greater proportion of patients with reductions
patients with an ability to concentrate that was good to very good (Ability to Concentrate item of the NSAQ) ([2]; end of the 2-week treatment period, 0% at baseline): 42.9%
discontinuations due to adverse events ([2]; human, in vivo): no discontinuations due to adverse events
most commonly reported adverse events ([2]; human, in vivo): anxiety, constipation, and insomnia
safety and tolerability ([2]; human, in vivo): safe and well tolerated
serious adverse events ([2]; human, in vivo): no serious adverse events
reduction in the Epworth Sleepiness Scale (ESS) score from baseline ([2]; p=0.003 vs placebo, FIG. 4): 6.0
patients reporting improved sleep quality ([2]; p=0.007 vs placebo, FIG. 9): 45.0%
patients with 50% or greater reduction in inadvertent naps ([2]; p=0.036 vs placebo, FIG. 6): 38.1%
patients reporting a reduction in the number of awakenings at night ([2]; p=0.044 vs placebo, FIG. 9): 30.0%
overall percentage of patients experiencing adverse events ([2]; placebo 40.0%): 42.9%
reduction from baseline in the mean weekly number of cataplexy attacks, averaged for the 2-week treatment period (overall treatment effect), primary endpoint ([2]; vs placebo, p<0.001, 8 mg/day Week 1, 10 mg/day Week 2, oral twice daily, FIG. 1): highly statistically significant reduction
time to reach a maximum plasma concentration [3]: 2 to 4 h
